Experiment [1] concerns the target T1, ZmSIRK1 (ZmSIRK1^737-1045) (Zea mays, UniProt K7VIQ3).
T1 construct: gene ZEAMMB73_Zm00001d047570; kinase domain Ser737-Ser1045 (full length 1045 aa; KD 762-1040), E. coli BL21(DE3)-R3-pRARE2, pNIC28a-Bsa4, 6xHis tag removed by TEV; forward primer encodes S737-V-V-F-T-A-E (translated); motifs 907DYS909, 933PPE935; model residues 744-972, 977-1000, 1009-1045
Put plainly: isothermal titration calorimetry; co-crystal structure. The format is binding. On the technique in general: ITC needs no label: the signal is the heat of the interaction.

The target of experiment [2] is T1, ZmSIRK1 (ZmSIRK1^737-1045). As to the kind of experiment: isothermal titration calorimetry. The format is binding.

Each structure is given as a SMILES string.

T1 sequence (K7VIQ3 entry or part of it): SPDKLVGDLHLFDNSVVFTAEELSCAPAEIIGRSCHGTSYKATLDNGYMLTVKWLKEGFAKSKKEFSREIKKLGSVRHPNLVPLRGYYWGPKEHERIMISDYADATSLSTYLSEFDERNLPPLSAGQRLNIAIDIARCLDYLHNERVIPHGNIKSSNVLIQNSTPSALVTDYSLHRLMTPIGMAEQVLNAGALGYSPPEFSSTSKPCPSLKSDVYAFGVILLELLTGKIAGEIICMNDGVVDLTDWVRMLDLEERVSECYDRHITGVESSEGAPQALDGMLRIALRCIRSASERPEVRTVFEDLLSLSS

`Nc1ncnc2c1ncn2[C@@H]1O[C@H](COP(=O)(O)OP(=O)(O)NP(=O)(O)O)[C@@H](O)[C@H]1O` [AMP-PNP] showed a Kd in experiment [1] of 2800 nM.

`CC(C)n1nc(-c2ccc3oc(N)nc3c2)c2c(N)ncnc21` [INK 128] showed a Kd in experiment [2] of 1760 nM.

For the compound `Nc1ncnc2c1c(-c1cnc3[nH]ccc3c1)nn2C1CCCC1` [PP121], the Kd in experiment [2] was determined as 1990 nM.

The Kd is a measure of binding affinity in units of concentration. High values mean weaker binding, low ones tighter binding.

The values above are taken from article PMC5445127 (Frontiers in Plant Science, 2017).
